Data reported in ChEMBL document CHEMBL1201862, “PubChem BioAssay data set” (2004).
Activity calls are given as the source filed them. Rule as the data show it: actives have a measured IC50 and inactives only a lower limit.

Target: Envelope glycoprotein gp160 (Human immunodeficiency virus 1, UniProt Q6QLK5)
Assay: inhibitors of HIV fusion peptide binding, primary screen, biochemical, uHTS, fluorescence dequenching (AID 1986)

Sequence of Envelope glycoprotein gp160 (Q6QLK5 whole entry, the tested form may be a part): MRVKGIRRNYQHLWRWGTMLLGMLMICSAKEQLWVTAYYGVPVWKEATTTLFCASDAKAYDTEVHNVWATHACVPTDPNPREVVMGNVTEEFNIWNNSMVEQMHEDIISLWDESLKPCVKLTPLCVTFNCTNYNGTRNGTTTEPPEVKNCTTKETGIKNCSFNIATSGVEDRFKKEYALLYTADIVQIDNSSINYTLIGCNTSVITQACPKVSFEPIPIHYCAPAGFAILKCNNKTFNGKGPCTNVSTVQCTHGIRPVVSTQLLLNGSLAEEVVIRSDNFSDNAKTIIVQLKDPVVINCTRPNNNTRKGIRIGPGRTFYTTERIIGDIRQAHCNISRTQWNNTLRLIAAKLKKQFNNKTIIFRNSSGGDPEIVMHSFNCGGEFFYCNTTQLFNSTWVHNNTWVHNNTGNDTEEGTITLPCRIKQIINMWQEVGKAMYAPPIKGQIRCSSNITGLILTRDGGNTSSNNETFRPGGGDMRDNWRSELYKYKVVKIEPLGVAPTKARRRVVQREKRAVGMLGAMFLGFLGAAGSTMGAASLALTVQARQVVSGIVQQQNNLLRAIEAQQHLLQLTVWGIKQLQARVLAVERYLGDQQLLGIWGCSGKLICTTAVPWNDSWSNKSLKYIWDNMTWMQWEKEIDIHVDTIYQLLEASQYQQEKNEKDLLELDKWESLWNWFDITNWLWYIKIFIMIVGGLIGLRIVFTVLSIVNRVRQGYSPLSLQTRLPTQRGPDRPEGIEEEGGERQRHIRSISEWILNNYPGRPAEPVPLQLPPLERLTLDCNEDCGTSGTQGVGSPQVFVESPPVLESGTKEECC

**Q.** CC1=CN2C(=N)/C(=C/c3cc(Cl)c(O)c(Cl)c3)C(=O)N=C2S1 was tested. Which IC50 did it give?
**A.** 26.2 µM (active)

**Q.** For O=C(NN1C(=O)/C(=C\c2ccc(O)c([N+](=O)[O-])c2)SC1=S)c1ccccc1Cl, which IC50 is on record?
**A.** 24.9 µM (active)

**Q.** For COc1cc(/C=C2/C(=O)NN(c3ccc(Cl)cc3)C2=O)cc(Br)c1O, which IC50 is on record?
**A.** 15.5 µM (active)
